Data reported in paper PMC7979765, “trans-Translation inhibitors bind to a novel site on the ribosome and clear Neisseria gonorrhoeae in vivo” (Nature Communications, 2021).
In brackets after ≈: the same amount, converted by molar mass. Where two headings read alike, the source gives them in different places.

Tested on: Neisseria gonorrhoeae
Assay: MIC, microbroth dilution, G77L medium
Format: cell-based
Settings: Neisseria gonorrhoeae

## O=C(Nc1nnc(-c2ccc(F)cc2)o1)N1CCc2ccccc2C1 [MBX-4132]
read-out: MIC GEOMEAN, strain WHO M, geomean of replicates
  MIC: 0.132 µg/mL (≈ 0.39 µM)
read-out: MIC GEOMEAN, strain WHO N, geomean of replicates
  MIC: 0.264 µg/mL (≈ 0.78 µM)
read-out: MIC GEOMEAN, strain WHO O, geomean of replicates
  MIC: 0.132 µg/mL (≈ 0.39 µM)
read-out: MIC GEOMEAN, strain WHO P, geomean of replicates
  MIC: 0.333 µg/mL (≈ 0.984 µM)
read-out: MIC GEOMEAN, strain WHO U, geomean of replicates
  MIC: 0.132 µg/mL (≈ 0.39 µM)
read-out: MIC GEOMEAN, strain WHO V, geomean of replicates
  MIC: 0.264 µg/mL (≈ 0.78 µM)
read-out: MIC GEOMEAN, strain WHO W, geomean of replicates
  MIC: 0.132 µg/mL (≈ 0.39 µM)
read-out: MIC GEOMEAN, strain WHO X, geomean of replicates
  MIC: 0.21 µg/mL (≈ 0.621 µM)
read-out: MIC GEOMEAN, strain WHO Y, geomean of replicates
  MIC: 0.21 µg/mL (≈ 0.621 µM)
read-out: MIC GEOMEAN, strain WHO Z, geomean of replicates
  MIC: 0.264 µg/mL (≈ 0.78 µM)
read-out: N. gonorrhoeae H041 MIC, strain H041, Fig. 1B
  MIC: 0.18 µg/mL (≈ 0.532 µM)
read-out: N. gonorrhoeae MIC90
  MIC90: 0.34 µg/mL (≈ 1 µM)
Strain CDC-0165, CIP, PEN, TET
  MIC: 0.68 µg/mL (≈ 2.01 µM)
Strain CDC-0165, replicates 1-3
  MIC: 0.677 µg/mL (≈ 2 µM)
Strain CDC-0166, CIP, PEN, TET
  MIC: 0.17 µg/mL (≈ 0.502 µM)
Strain CDC-0166, replicates 1-3
  MIC: 0.169 µg/mL (≈ 0.499 µM)
Strain CDC-0167
  MIC: 0.13 µg/mL (≈ 0.384 µM)
Strain CDC-0167, replicates 1-3
  MIC: 0.169 µg/mL (≈ 0.499 µM)
Strain CDC-0169, CIP, PEN, TET
  MIC: 0.17 µg/mL (≈ 0.502 µM)
Strain CDC-0169, replicates 1-3
  MIC: 0.169 µg/mL (≈ 0.499 µM)
Strain CDC-0170, CIP, PEN, TET
  MIC: 0.17 µg/mL (≈ 0.502 µM)
Strain CDC-0170, replicates 1-3
  MIC: 0.169 µg/mL (≈ 0.499 µM)
Strain CDC-0171, CIP, PEN, TET
  MIC: 0.17 µg/mL (≈ 0.502 µM)
Strain CDC-0171, replicates 1-3
  MIC: 0.169 µg/mL (≈ 0.499 µM)
Strain CDC-0172, CIP, PEN, TET
  MIC: 0.17 µg/mL (≈ 0.502 µM)
Strain CDC-0172, replicates 1-3
  MIC: 0.169 µg/mL (≈ 0.499 µM)
Strain CDC-0173, CIP, PEN, TET
  MIC: 0.17 µg/mL (≈ 0.502 µM)
Strain CDC-0173, replicates 1-3
  MIC: 0.169 µg/mL (≈ 0.499 µM)
Strain CDC-0174, CIP, PEN, TET
  MIC: 0.17 µg/mL (≈ 0.502 µM)
Strain CDC-0174, replicates 1-3
  MIC: 0.169 µg/mL (≈ 0.499 µM)
Strain CDC-0175, CIP, PEN, TET
  MIC: 0.08 µg/mL (≈ 0.236 µM)
Strain CDC-0175, replicates 1-3
  MIC: 0.085 µg/mL (≈ 0.251 µM)
Strain CDC-0176
  MIC: 0.34 µg/mL (≈ 1 µM)
Strain CDC-0176, replicates 1-3
  MIC: 0.338 µg/mL (≈ 0.999 µM)
Strain CDC-0177, CIP, PEN, TET
  MIC: 0.17 µg/mL (≈ 0.502 µM)
Strain CDC-0177, replicates 1-3
  MIC: 0.169 µg/mL (≈ 0.499 µM)
Strain CDC-0178, TET
  MIC: 0.34 µg/mL (≈ 1 µM)
Strain CDC-0178, replicates 1-3
  MIC: 0.338 µg/mL (≈ 0.999 µM)
Strain CDC-0179, CIP, PEN, TET
  MIC: 0.08 µg/mL (≈ 0.236 µM)
Strain CDC-0179, replicates 1-3
  MIC: 0.085 µg/mL (≈ 0.251 µM)
Strain CDC-0180
  MIC: 0.17 µg/mL (≈ 0.502 µM)
Strain CDC-0180, replicates 1-3
  MIC: 0.169 µg/mL (≈ 0.499 µM)
Strain CDC-0181, CIP, PEN, TET
  MIC: 0.17 µg/mL (≈ 0.502 µM)
Strain CDC-0181, replicates 1-3
  MIC: 0.169 µg/mL (≈ 0.499 µM)
Strain CDC-0182, TET
  MIC: 0.17 µg/mL (≈ 0.502 µM)
Strain CDC-0182, replicates 1-3
  MIC: 0.169 µg/mL (≈ 0.499 µM)
Strain CDC-0183, CIP, PEN, TET
  MIC: 0.34 µg/mL (≈ 1 µM)
Strain CDC-0183, replicates 1-3
  MIC: 0.338 µg/mL (≈ 0.999 µM)
Strain CDC-0184, CIP, PEN, TET
  MIC: 0.17 µg/mL (≈ 0.502 µM)
Strain CDC-0184, replicates 1-3
  MIC: 0.169 µg/mL (≈ 0.499 µM)
Strain CDC-0185, CIP, PEN, TET
  MIC: 0.27 µg/mL (≈ 0.798 µM)
Strain CDC-0185, replicates 1-3
  MIC: 0.338 µg/mL (≈ 0.999 µM)
Strain CDC-0186, CIP, PEN, TET
  MIC: 0.17 µg/mL (≈ 0.502 µM)
Strain CDC-0186, replicates 1-3
  MIC: 0.169 µg/mL (≈ 0.499 µM)
